Results: patent US8735140B2, “Preservation and composition of bioprocess algae for production of lipids, seedstock, and feed” (Kuehnle AgroSystems, Inc., priority 2008, dated 2014)

How the values were obtained:
Experiment in all cases: Trehalose preservation, pretreatment with 0.5M sorbitol and embedding in alginate mat
Format in all cases: cell-based
Chlorella KAS603 = details: for % viability after storage & rejuvenation / Cell recovery after storage, relative to control: 0M control = 100%; for Cell number after 21 weeks in storage & rejuvenation: 3 weeks rejuvenation; for Growth after storage & rejuvenation: 21 weeks + 3 weeks rejuvenation
Procedure: (§1) Cells in 40 ml flask cultures are grown to mid-log phase with a density of between 3×10^6 and 3×10^7 cells/ml, and are centrifuged. Culture medium is removed after centrifugation, resulting in more concentrated algae cells. Cells are then re-suspended in ideal glass solution consisting of fresh culture medium and trehalose at a concentration of 0.1M, 0.3M, and 0.5M (dihydrate trehalose 100 from Hayashibara Co. Ltd, Okayama, Japan), respectively, and left overnight with mild agitation. Cells are centrifuged again to remove the ideal glass solution the next day, and are re-suspended in fresh or salt water without any nutrient. The cell density of the resulting suspension is determined prior to storage under the various treatments. (Some cells were also treated with a 0.5M sorbitol solution). In one specific embodiment, 2% (w/v) alginate solution (Sigma-Aldrich A-2033) and 3% CaCl2 solution (Sigma-Aldrich C1016) are prepared in salt water or fresh water medium as required by specific algae species, and autoclave sterilized. Then, 2.0 ml 2% alginate solution is pipetted into each well of a BD Falcon 12-well plate. 0.2 ml algae cell suspension is then pipetted into each well and the mixture is further stirred. The alginate-cell mixture is further sprayed with 3% CaCl2 solution in a sterile pump bottle, allowing the alginate to solidify. After solidification, plates are closed and placed under low light and at ambient temperature. After stored under the above preservation conditions for 5 months, algae cells can be rejuvenated by overlaying alginate/algae mixture with 3.0 ml sterile 5.0% NaPolyphosphate (Sigma Aldrich 305553) and allowing to the mixture sit overnight. The algae/alginate/NaPolyphosphate mixture is then removed from the 12-well plate, diluted with fresh medium (3 parts fresh medium to 1 part cell suspension) and placed under light. In one specific embodiment, cells are treated with trehalose solution at various concentrations and left overnight. Cells are centrifuged the next day to remove the trehalose solution, and then re-suspended in sterile 0.5M D-sorbitol (Fisher Scientific […]) dissolved in salt or fresh-water medium as required by specific algae species. Cells are left to stand for 2 hours with mild agitation. After 2 hours, cells are centrifuged again to remove the 0.5M sorbitol solution and re-suspended in fresh or salt-water medium. Cells are counted after the re-suspension. Cell viability is determined by comparing the cell growth in control set with the experimental set. Specifically, cell counts are performed on all samples. The averaged density value (in cells per ml) for all the cultures after treatment is defined as “rejuvenation cell count.” In some samples, the percent recovery of cells immediately after storage is also determined. The formulae are illustrated as follows: Growth=(rejuvenation cell count)/(initial cell count) Cell recovery after storage=(cell density after storage)/(initial cell density), with controls set at 100% cell recovery. Viability after storage and rejuvenation in nutrient medium=(Growth of treatment)/(Growth of control)×100%, with controls set at 100% viability

Synechocystis KAS635 = details: for % viability after storage & rejuvenation / Cell recovery after storage, relative to control: 0M control = 100%; for Cell number after 21 weeks in storage & rejuvenation: 3 weeks rejuvenation; for Cell recovery after storage / Cell recovery after storage, relative to control: 21 weeks; for Growth after storage & rejuvenation: 21 weeks + 3 weeks rejuvenation
Procedure: as §1

Tetraselmis KAS633 = details: for % viability after storage & rejuvenation / Cell recovery after storage, relative to control: 0M control = 100%; for Cell number after 21 weeks in storage & rejuvenation: 3 weeks rejuvenation; for Growth after storage & rejuvenation: 21 weeks + 3 weeks rejuvenation; for Cell recovery after storage, relative to control: 21 weeks
Procedure: as §1

Chlorella KAS503 = details: for % viability after storage & rejuvenation / Cell recovery after storage, relative to control: 0M control = 100%; for Cell number after 21 weeks in storage & rejuvenation: 3 weeks rejuvenation; for Growth after storage & rejuvenation: 21 weeks + 3 weeks rejuvenation; for Cell recovery after storage, relative to control: 21 weeks
Procedure: as §1

[1] = 0.1M trehalose in F/2, 0.5M sorbitol pretreatment
[2] = 0.1M trehalose in F/2, 0.5M sorbitol pretreatment, 21 weeks
[3] = 0.3M trehalose in F/2, 0.5M sorbitol pretreatment
[4] = 0.5M trehalose in F/2, 0.5M sorbitol pretreatment
[5] = 0.1M trehalose in BG11, 0.5M sorbitol pretreatment
[6] = 0.3M trehalose in BG11, 0.5M sorbitol pretreatment
[7] = 0.5M trehalose in BG11, 0.5M sorbitol pretreatment

SMILES: OC[C@H]1O[C@H](O[C@H]2O[C@H](CO)[C@@H](O)[C@H](O)[C@H]2O)[C@H](O)[C@@H](O)[C@@H]1O [trehalose, α-D-glycosyl-α-D-glycosylpyranoside]
- Cell number after 21 weeks in storage (Chlorella KAS603; [1]): 1.920 × 10^7
- % viability after storage & rejuvenation (Chlorella KAS603; [1]): (105)%
- Cell number after 21 weeks in storage & rejuvenation (Chlorella KAS603; [1]): 3.102 × 10^7 cells/ml
- Cell recovery after storage (Chlorella KAS603; [2]): 1.76
- Growth after storage & rejuvenation (Chlorella KAS603; [1]): 1.62
- Cell recovery after storage, relative to control (Chlorella KAS603; [2]): (61%)
- Cell number after 21 weeks in storage (Chlorella KAS603; [3]): 2.378 × 10^7
- % viability after storage & rejuvenation (Chlorella KAS603; [3]): (139)%
- Cell number after 21 weeks in storage & rejuvenation (Chlorella KAS603; [3]): 5.099 × 10^7 cells/ml
- Growth after storage & rejuvenation (Chlorella KAS603; [3]): 2.14
- Cell recovery after storage, relative to control (Chlorella KAS603; 0.3M trehalose in F/2, 0.5M sorbitol pretreatment, 21 weeks): (123%)
- Cell number after 21 weeks in storage (Chlorella KAS603; [4]): 2.113 × 10^7
- % viability after storage & rejuvenation (Chlorella KAS603; [4]): (160%)
- Cell number after 21 weeks in storage & rejuvenation (Chlorella KAS603; [4]): 5.197 × 10^7 cells/ml
- Growth after storage & rejuvenation (Chlorella KAS603; [4]): 2.46
- Cell recovery after storage, relative to control (Chlorella KAS603; 0.5M trehalose in F/2, 0.5M sorbitol pretreatment, 21 weeks): (155%)
- Cell number after 21 weeks in storage (Synechocystis KAS635; [5]): 1.275 × 10^7
- % viability after storage & rejuvenation (Synechocystis KAS635; [5]): (87%)
- Cell number after 21 weeks in storage & rejuvenation (Synechocystis KAS635; [5]): 2.436 × 10^7 cells/ml
- Cell recovery after storage (Synechocystis KAS635; [5]): 0.39
- Growth after storage & rejuvenation (Synechocystis KAS635; [5]): 1.91
- Cell recovery after storage, relative to control (Synechocystis KAS635; [5]): (106%)
- Cell number after 21 weeks in storage (Synechocystis KAS635; [6]): 1.421 × 10^7
- % viability after storage & rejuvenation (Synechocystis KAS635; [6]): (144%)
- Cell number after 21 weeks in storage & rejuvenation (Synechocystis KAS635; [6]): 4.495 × 10^7 cells/ml
- Cell recovery after storage (Synechocystis KAS635; [6]): 0.42
- Growth after storage & rejuvenation (Synechocystis KAS635; [6]): 3.16
- Cell recovery after storage, relative to control (Synechocystis KAS635; [6]): (114%)
- Cell number after 21 weeks in storage (Synechocystis KAS635; [7]): 2.023 × 10^7
- % viability after storage & rejuvenation (Synechocystis KAS635; [7]): (80%)
- Cell number after 21 weeks in storage & rejuvenation (Synechocystis KAS635; [7]): 3.560 × 10^7 cells/ml
- Cell recovery after storage (Synechocystis KAS635; [7]): 0.72
- Growth after storage & rejuvenation (Synechocystis KAS635; [7]): 1.76
- Cell recovery after storage, relative to control (Synechocystis KAS635; [7]): (195%)
- Cell number after 21 weeks in storage (Tetraselmis KAS633; [1]): 2.831 × 10^6
- % viability after storage & rejuvenation (Tetraselmis KAS633; [1]): (104%)
- Cell number after 21 weeks in storage & rejuvenation (Tetraselmis KAS633; [1]): 1.163 × 10^7 cells/ml
- Growth after storage & rejuvenation (Tetraselmis KAS633; [1]): 4.1
- Cell recovery after storage, relative to control (Tetraselmis KAS633; [1]): (78%)
- Cell number after 21 weeks in storage (Tetraselmis KAS633; [3]): 2.276 × 10^6
- % viability after storage & rejuvenation (Tetraselmis KAS633; [3]): (158%)
- Cell number after 21 weeks in storage & rejuvenation (Tetraselmis KAS633; [3]): 1.420 × 10^7 cells/ml
- Growth after storage & rejuvenation (Tetraselmis KAS633; [3]): 6.23
- Cell recovery after storage, relative to control (Tetraselmis KAS633; [3]): (80%)
- Cell number after 21 weeks in storage (Tetraselmis KAS633; [4]): 1.899 × 10^6
- % viability after storage & rejuvenation (Tetraselmis KAS633; [4]): 186%
- Cell number after 21 weeks in storage & rejuvenation (Tetraselmis KAS633; [4]): 1.399 × 10^7 cells/ml
- Growth after storage & rejuvenation (Tetraselmis KAS633; [4]): 7.34
- Cell recovery after storage, relative to control (Tetraselmis KAS633; [4]): (58%)
- Cell number after 21 weeks in storage (Chlorella KAS503; [1]): 1.163 × 10^7
- % viability after storage & rejuvenation (Chlorella KAS503; [1]): (51%)
- Cell number after 21 weeks in storage & rejuvenation (Chlorella KAS503; [1]): 1.03 × 10^7 cells/ml
- Growth after storage & rejuvenation (Chlorella KAS503; [1]): 0.89
- Cell recovery after storage, relative to control (Chlorella KAS503; [1]): (227%)
- Cell number after 21 weeks in storage (Chlorella KAS503; [3]): 8.097 × 10^6
- % viability after storage & rejuvenation (Chlorella KAS503; [3]): (148%)
- Cell number after 21 weeks in storage & rejuvenation (Chlorella KAS503; [3]): 2.080 × 10^7 cells/ml
- Growth after storage & rejuvenation (Chlorella KAS503; [3]): 2.57
- Cell recovery after storage, relative to control (Chlorella KAS503; [3]): (226%)
- Cell number after 21 weeks in storage (Chlorella KAS503; [4]): 8.589 × 10^6
- % viability after storage & rejuvenation (Chlorella KAS503; [4]): (132%)
- Cell number after 21 weeks in storage & rejuvenation (Chlorella KAS503; [4]): 1.959 × 10^7 cells/ml
- Growth after storage & rejuvenation (Chlorella KAS503; [4]): 2.28
- Cell recovery after storage, relative to control (Chlorella KAS503; [4]): (231%)
